Reference: patent publication US20220362386A1, “LIQUID COMPOSITIONS COMPRISING A LEVODOPA AMINO ACID CONJUGATE AND USES THEREOF” (NeuroDerm, Ltd., priority 2019, published 2022)
Counter-ions that a name gives are not always drawn. Like-named read-outs stand apart in the source and are kept apart here. Non-standard residues stand in square brackets, D forms with d. Residues, ends and D or L forms follow the SMILES beside them. Dopa = N[C@@H](Cc1ccc(O)c(O)c1)C(=O)O

Legend:
P-gp = test: In-vitro absorption, Caco-2 A-B permeability; assay type: in vitro ADME, human; conditions: human, Caco-2, pH 7.4, with verapamil 100 μM on both the A and B sides, Caco-2 A-B, in the presence of verapamil
Procedure: (§1) Conditions may be adjusted when necessary.
(§2) D denotes donor and R is receiver. […] V is the volume of the donor or receiver.
(§3) The test was performed with and without verapamil, which is a permeation inhibitor, and the results are presented in Tables 22 (without verapamil) and 34 (with verapamil).

[1] = In-vitro absorption, Caco-2 A-B permeability; assay type: in vitro ADME, human; conditions: human, Caco-2, pH 7.4, Caco-2 A-B, without verapamil; for Papp A→B at 60 min, 10 μM: 1.0E−05M
Procedure: as §1, §2, §3

[2] = Human blood stability test; assay type: in vitro ADME; parameters: key: slope of % decrease of remaining compound over time; higher = faster metabolism; conditions: slope of the percentage decrease of remaining compound; substrate 10 μM; 0-60 minutes
Procedure: The stability of several LDAA compounds in human blood was tested. The substrate concentration was 10 μM and the incubation time 0, 5, 15, 30 and 60 minutes.
The results are described in Table 19, wherein the results describe the Ke, i.e., the slope of the percentage decrease of the remaining amount of the compound, measured at each of the above time points, such that the higher the Ke the faster the metabolism.

[3] = In-vitro metabolism of LDAA compounds using liver microsomes; assay type: in vitro ADME, human; conditions: for half-life at 0.1 μM / microsomal CLint at 0.1 μM: both sexes, human, pooled human liver microsomes; for half-life at 0.1 μM: pH 7.4, 1.0E−07M, 0.1 mg/mL microsomal protein; for microsomal CLint at 0.1 μM: pH 7.4, calculated from the half-life; for microsomal CLint at 0.1 μM / % Compound Remaining 1st / % Compound Remaining 2nd / % Compound Remaining Mean: 1.0E−07M
Procedure: The stability of test compounds in pooled human liver microsomes was determined on 96-well plates, wherein the test compounds were quantified at five time points by HPLC-MS/MS analysis. The assay matrix included mixed gender and a pool of 50 human liver microsomes, wherein the final microsomal protein concentration was 0.1 mg/mL. The test concentration was 0.1 μM with 0.01% DMSO, 0.25% acetonitrile and 0.25% methanol.
Each test compound was pre-incubated for five minutes with pooled liver microsomes in phosphate buffer (pH 7.4) in a 37° C. shaking water-bath. The reaction was initiated by adding a nicotinamide adenine dinucleotide phosphate (NADPH)-generating system and incubating for 0, 15, 30, 45, and 60 min. The reaction was stopped by transferring the incubation mixture to acetonitrile/methanol. Samples were then mixed and centrifuged, wherein the supernatants were used for HPLC-MS/MS analysis.
In each assay the four reference compounds propranolol, imipramine, verapamil and terfenadine were tested, wherein the propranolol and the imipramine are known to be relatively stable, while the verapamil and the terfenadine are known to be readily metabolized in human liver microsomes.
All samples were analyzed by HPLC-MS/MS using selected reaction monitoring. The HPLC system consisted of a binary LC pump with autosampler, a C-18 column, and a gradient. The conditions were adjusted when necessary.
Peak areas corresponding to the test compound were recorded. The amount of each compound remaining was calculated by comparing the peak area at each time point to time zero. The half-life is calculated from the slope of the initial linear range of the logarithmic curve of compound remaining (%) vs. time, assuming first order kinetics. In addition, the intrinsic clearance (Clint) was calculated from the half-life using the following equation:
Clint(μL/min/mg protein)=0.693/(t1/2×protein concentration)
The results of the in-vitro human liver microsome metabolism tests of various LDAA compounds (10^−7M), in their TFA salt forms, are provided in FIG. 1 and in Table 17, which presents the % of the compound remaining at times 0, 15, 30, 45 and 60 minutes, two half-life measurements and the Clint, calculated as detailed above.

human plasma = test: Protein binding, solid phase extraction (SPE) method; assay type: in vitro ADME; conditions: 1.0E−05M; SPE sample preparation
Procedure: (§4) A solid phase extraction (SPE) method was used to prepare samples for several compounds in the plasma protein binding assay. The following SPE protocols were followed:
(§5) Sorbent: Waters Oasis MCX 96—well MicroElution Plate—Cat #186001830BA Sample: 200 μL of plasma spiked at 10 μM with test compound. Sample was diluted 1:1 with 4% phosphoric acid in water and mixed for 15 minutes 1) Place Oasis plate on vacuum manifold and set vacuum to 5″ Hg; 2) Condition with 200 μL methanol; 3) Equilibrate with 200 μL water; 4) Load dilute plasma sample; 5) Wash with 200 μL 2% formic acid in water; 6) Wash with 400 μL methanol; and 7) Elute with 100 μL 5% NH4OH in methanol.
(§6) Sorbent: Waters Oasis MAX 96-well MicroElution plate—Cat #186001829 Sample: 200 μL of plasma spiked at 10 μM with test compound. Sample was diluted 1:1 with 4% phosphoric acid in water and mixed for 15 minutes 1) Place Oasis plate on vacuum manifold and set vacuum to 5″ Hg; 2) Condition with 200 μL methanol; 3) Equilibrate with 200 μL water; 4) Load dilute plasma sample; 5) Wash with 200 μL 5% NH4OH in water; 6) Wash with 400 μL methanol; and 7) Elute with 100 μL 2% formic acid in methanol.

[4] = as above; assay type: in vitro ADME, human; conditions: human, human plasma, 1.0E−05M, SPE sample preparation
Procedure: as §4, §5, §6

[5] = Human liver S9 stability test; assay type: in vitro ADME; conditions: slope of the percentage decrease of remaining compound; substrate 10 μM; S9 protein 0.2 mg/mL; 0-60 minutes
Procedure: The stability of several LDAA compounds, in their TFA salt form, in human liver S9 was tested using commercially available liver S9. The substrate concentration was 10 μM, the S9 protein concentration was 0.2 mg/mL, and the incubation time 0, 5, 15, 30 and 60 minutes.
The results are described in Table 18, wherein the results describe the Ke, i.e., the slope of the percentage decrease of the remaining amount of the compound, measured at each of the above time points, such that the higher the Ke the faster the metabolism.

[6] = read-out: Percent Recovery Mean
[7] = read-out: Half-Life (minute) 1st
[8] = read-out: Half-Life (minute) 2nd
[9] = read-out: Half-Life (minute) Mean

SMILES	recovery at 60 min, 10 μM (P-gp; read-out: Percent Recovery 1st) [%]	recovery at 60 min, 10 μM (P-gp; read-out: Percent Recovery 2nd) [%]	recovery at 60 min, 10 μM (P-gp; [6]) [%]	Papp A→B at 60 min, 10 μM ([1]; read-out: Permeability 1st) [×10⁻⁶ cm/s]	Papp A→B at 60 min, 10 μM ([1]; read-out: Permeability 2nd) [×10⁻⁶ cm/s]	Papp A→B at 60 min, 10 μM ([1]; read-out: Permeability Mean) [×10⁻⁶ cm/s]	recovery at 60 min, 10 μM ([1]; read-out: Percent Recovery 1st) [%]	recovery at 60 min, 10 μM ([1]; read-out: Percent Recovery 2nd) [%]	recovery at 60 min, 10 μM [1, 6] [%]	Ke [2]	half-life at 0.1 μM [3, 7] [min]	half-life at 0.1 μM [3, 8] [min]	half-life at 0.1 μM [3, 9] [min]	microsomal CLint at 0.1 μM [3] [µL/min/mg]	% Compound Remaining 1st ([3]; incubation time 0 minutes) [%]	% Compound Remaining 2nd ([3]; incubation time 0 minutes) [%]	% Compound Remaining Mean ([3]; incubation time 0 minutes) [%]	% Compound Remaining 1st ([3]; incubation time 15 minutes)	% Compound Remaining 2nd ([3]; incubation time 15 minutes) [%]	% Compound Remaining Mean ([3]; incubation time 15 minutes) [%]	other results
N[C@@H](CSC[C@@H](NC(=O)[C@@H](N)Cc1ccc(O)c(O)c1)C(=O)O)C(=O)O (single isomer, unassigned; peak 1) [LD-LA1 TFA salt, Levodopa Lanthionine Peak 1 TFA Salt]	58	67	62	0.2	0.21	0.2	82	77	79	−0.011	139	87.3	> 60	< 116	100	100	100	{129.4%	110.4	110	% Compound Remaining 1st ([3]; incubation time 30 minutes): {125.6%; % Compound Remaining 2nd ([3]; incubation time 30 minutes): 77.6%; % Compound Remaining Mean ([3]; incubation time 30 minutes): 78%; % Compound Remaining 1st ([3]; incubation time 45 minutes): 79.7%; % Compound Remaining 2nd ([3]; incubation time 45 minutes): 77.9%; % Compound Remaining Mean ([3]; incubation time 45 minutes): 79%; % Compound Remaining 1st ([3]; incubation time 60 minutes): 74.2%; % Compound Remaining 2nd ([3]; incubation time 60 minutes): 65.6%; % Compound Remaining Mean ([3]; incubation time 60 minutes): 70%
N[C@@H](CSC[C@H](NC(=O)[C@@H](N)Cc1ccc(O)c(O)c1)C(=O)O)C(=O)O (single isomer, unassigned; peak 2) [LD-LA2 TFA salt, Levodopa Lanthionine Peak 2 TFA Salt]	89	87	88	20.2	17.8	19	86	91	89	0.0128	75.7	110	> 60	< 116	100	100	100	122.9%	103.5	113	% Protein Bound 1st (human plasma): 18.7%; % Protein Bound Mean (human plasma): 18.7%; recovery at 10 μM ([4]; read-out: % Recovery 1st): 39%; recovery at 10 μM ([4]; read-out: % Recovery 2nd): 46%; recovery at 10 μM ([4]; read-out: % Recovery Mean): 43%; % Compound Remaining 1st ([3]; incubation time 30 minutes): 105.6%; % Compound Remaining 2nd ([3]; incubation time 30 minutes): 94.5%; % Compound Remaining Mean ([3]; incubation time 30 minutes): 100%; % Compound Remaining 1st ([3]; incubation time 45 minutes): 97.5%; % Compound Remaining 2nd ([3]; incubation time 45 minutes): 102%; % Compound Remaining Mean ([3]; incubation time 45 minutes): 100%; % Compound Remaining 1st ([3]; incubation time 60 minutes): 56.5%; % Compound Remaining 2nd ([3]; incubation time 60 minutes): 62.9%; % Compound Remaining Mean ([3]; incubation time 60 minutes): 60%
NC(=O)C[C@H](NC(=O)[C@@H](N)Cc1ccc(O)c(O)c1)C(=O)O [LD-Asn TFA salt, Levodopa Asparagine TFA Salt] (H-[Dopa]-Asn-OH)	65	62	63	0.6	0.47	0.5	62	78	70	0.0038	74.4	77.3	> 60	< 116	100	100	100	92.8%	96.4	95	Ke [5]: 0.0015; % Compound Remaining 1st ([3]; incubation time 30 minutes): 79.9%; % Compound Remaining 2nd ([3]; incubation time 30 minutes): 88.6%; % Compound Remaining Mean ([3]; incubation time 30 minutes): 84%; % Compound Remaining 1st ([3]; incubation time 45 minutes): 66.1%; % Compound Remaining 2nd ([3]; incubation time 45 minutes): 59.7%; % Compound Remaining Mean ([3]; incubation time 45 minutes): 63%; % Compound Remaining 1st ([3]; incubation time 60 minutes): 58.9%; % Compound Remaining 2nd ([3]; incubation time 60 minutes): 64.9%; % Compound Remaining Mean ([3]; incubation time 60 minutes): 62%
